Data reported in patent publication US20260138959A1, “QUINAZOLINE DERIVATIVE COMPOUND AND USE THEREOF” (VORONOI INC., priority 2021, published 2026).

Columns and labels:
human PDGFR-β(wt) = target: T1, human PDGFR-β(wt) (Homo sapiens, UniProt P09619); test: Enzyme inhibitory activity, ADP-Glo kinase assay, PDGFR-β(wt); format: biochemical; details: read-out: PDGFR-β (IC50 class)
T1 construct: purchased Signalchem P13-11G
Protocol: (§1) In order to evaluate the inhibitory activity of the compounds synthesized according to the above examples on PDGFR-α(wt), PDGFR-β(wt), c-KIT(wt), and c-KIT(D816V) kinases, the following method was performed. The compounds of examples were reacted with purified human PDGFR-α(wt) (Signalchem #P12-18G) enzyme, human PDGFR-β(wt) (Signalchem #P13-11G) enzyme, human c-KIT(wt) (Signalchem #K06-11BG) enzyme, human c-KIT(D816V) (Signalchem #C06-12LG) enzyme, and the enzyme inhibitory abilities were evaluated by the following method.
(§2) The reaction buffer was used as a composition of 40 mM Tris-HCl pH7.4, 20 mM MgCl2, 0.5 mg/ml BSA, 50 μM DTT, and the reactions of all the tests were carried out on the reaction buffer. The compound was diluted in 12 steps using a serial dilution method from a 10 mM DMSO stock, and the enzyme activity was measured at a final compound concentration of 10˜0.00005645 μM. During the test, the enzyme activity was confirmed using in vitro ADP-Glo™ kinase assay (Promega) after reacting with the proper concentration of human PDGFR-α(wt) enzyme, human PDGFR-β(wt), human c-KIT(wt) enzyme, and human c-KIT(D816V) enzyme with purified ATP and enzyme substrate at 25° C. for 1˜2 hours. At a ratio of 2:2:1, an enzyme-active reaction solution, an ADP-Glo reaction solution, and an enzyme-active detection solution were reacted to measure the inhibition of the enzyme's activity with luminoscence. Based on the […] of the enzyme activity of the solvent control that was not treated with the compound, the degree of enzyme activity inhibition was calculated according to the treatment concentration of each compound, and the concentration of each compound that inhibits 50% of enzyme activity was determined as IC50 (nM) value and the value was obtained by using GraphPad Prism 8.3.0 (GraphPad software Inc., San Diego) software. (A: IC50≤50 nM; B: 50 nM<IC50≤100 nM; C: 100 nM<IC50≤500 nM; D: IC50>500 nM).

Ba/F3-TEL-PDGFRα(WT) = test: Proliferation inhibitory activity on Ba/F3 cell (CellTiter-Glo, 72 hours), PDGFR-α; format: cell-based; details: Mus musculus, BaF3, read-out: Ba/F3 (nM) Tel-PDGFRα (GI50 class)
Protocol: (§3) Ba/F3-TEL-PDGFRα(WT), Ba/F3-TEL-PDGFβ(WT), Ba/F3-c-KIT(D816V) (Kyinno, #KC-0138), c-KIT V560G/D816V, c-KIT D814Y were seeded at 3×10^3/100 μl/well in a clear bottom white 96-well plate. A culture solution containing compounds of 12 concentrations (0.00001-2 mM) serially diluted in 3 folds and the DMSO control group was added at 0.5 μl/well each to a final concentration of 0.00005-10 μM, and then incubated in a CO2 incubator at 37° C. for 72 hours. After 72 hours, the plate treated with the compound was taken out, CellTiter-Glo® Assay (Promega) solution was treated with 100 μl/well, followed by mixing well. After mixing well for about 10 minutes at room temperature, […] was measured using a microplate reader. The data were presented as percentages in proportion to treated cells based on the vehicle, GI50 (nM) values were calculated using GraphPad Prism 8.3.0 (GraphPad software Inc., San Diego).
(§4) The inhibitory activities of Ba/F3 expressing PDGFR-α, PDGFR-β, c-KIT(D816V), c-KIT V560G/D816V, and c-KIT D814Y measured as described above were measured and shown in Table 7 below (A: GI50≤200 nM; B: 200 nM<GI50≤500 nM; C: GI50>500 nM).

human PDGFR-α(wt) = target: T2, human PDGFR-α(wt) (Homo sapiens, UniProt P16234); test: Enzyme inhibitory activity, ADP-Glo kinase assay, PDGFR-α(wt); format: biochemical; details: read-out: PDGFR-α (IC50 class)
T2 construct: purchased Signalchem P12-18G
Protocol: as §1, §2

Ba/F3-c-KIT(D816V) = test: Proliferation inhibitory activity on Ba/F3 cell (CellTiter-Glo, 72 hours), c-KIT(D816V); format: cell-based; details: Mus musculus, BaF3, read-out: Ba/F3 (nM) c-KIT (D816V) (GI50 class)
How it was run: (§5)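 Viability was read by CellTiter-Glo after 72 h compound exposure at 37 °C, and GI50 values (nM) were derived from percent of vehicle-treated growth. Ba/F3 cells transformed with TEL-PDGFRα/β or mutant c-KIT were plated at 3×10^3 per well. Final compound range was 0.00005-10 μM in 12 threefold steps.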

Ba/F3-TEL-PDGFβ(WT) = test: Proliferation inhibitory activity on Ba/F3 cell (CellTiter-Glo, 72 hours), PDGFR-β; format: cell-based; details: Mus musculus, BaF3, read-out: Ba/F3 (nM) Tel-PDGFRβ (GI50 class)
Protocol: as §3, §4

c-KIT V560G/D816V = test: Proliferation inhibitory activity on Ba/F3 cell (CellTiter-Glo, 72 hours), c-KIT V560G/D816V; format: cell-based; details: Mus musculus, BaF3, c-KIT V560G/D816V cells, read-out: Cell (nM) c-KIT V560G/D816V (GI50 class)
How it was run: as §5

T1 sequence (P09619 33-1106): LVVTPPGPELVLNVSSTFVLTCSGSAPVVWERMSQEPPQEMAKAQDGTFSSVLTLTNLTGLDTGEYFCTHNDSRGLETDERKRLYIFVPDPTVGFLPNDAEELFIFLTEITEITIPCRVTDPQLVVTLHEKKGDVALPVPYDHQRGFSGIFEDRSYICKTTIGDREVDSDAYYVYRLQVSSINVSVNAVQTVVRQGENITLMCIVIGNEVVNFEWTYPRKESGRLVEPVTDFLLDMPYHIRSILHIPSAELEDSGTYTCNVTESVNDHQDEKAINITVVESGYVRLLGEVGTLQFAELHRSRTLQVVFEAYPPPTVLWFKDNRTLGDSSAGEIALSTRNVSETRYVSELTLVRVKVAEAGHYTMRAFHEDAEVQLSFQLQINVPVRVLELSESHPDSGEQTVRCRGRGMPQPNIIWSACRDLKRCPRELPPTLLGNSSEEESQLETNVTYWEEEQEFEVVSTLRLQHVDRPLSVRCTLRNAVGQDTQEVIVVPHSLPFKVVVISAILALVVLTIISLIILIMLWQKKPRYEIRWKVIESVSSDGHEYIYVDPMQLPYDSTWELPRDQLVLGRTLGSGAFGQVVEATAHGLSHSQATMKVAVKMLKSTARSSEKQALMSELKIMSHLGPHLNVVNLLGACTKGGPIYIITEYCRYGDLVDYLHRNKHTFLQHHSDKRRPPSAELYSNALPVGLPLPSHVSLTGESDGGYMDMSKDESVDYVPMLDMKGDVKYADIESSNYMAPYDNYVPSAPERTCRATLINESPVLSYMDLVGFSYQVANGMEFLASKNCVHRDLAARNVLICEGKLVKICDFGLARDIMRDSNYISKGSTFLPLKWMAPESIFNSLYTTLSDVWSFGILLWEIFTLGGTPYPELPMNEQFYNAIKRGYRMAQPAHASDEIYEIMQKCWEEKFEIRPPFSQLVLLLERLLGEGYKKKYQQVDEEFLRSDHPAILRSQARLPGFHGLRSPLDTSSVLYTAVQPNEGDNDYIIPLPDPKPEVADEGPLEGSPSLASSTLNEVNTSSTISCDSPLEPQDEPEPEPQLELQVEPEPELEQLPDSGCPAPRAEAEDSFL
T2 sequence (P16234 24-1089): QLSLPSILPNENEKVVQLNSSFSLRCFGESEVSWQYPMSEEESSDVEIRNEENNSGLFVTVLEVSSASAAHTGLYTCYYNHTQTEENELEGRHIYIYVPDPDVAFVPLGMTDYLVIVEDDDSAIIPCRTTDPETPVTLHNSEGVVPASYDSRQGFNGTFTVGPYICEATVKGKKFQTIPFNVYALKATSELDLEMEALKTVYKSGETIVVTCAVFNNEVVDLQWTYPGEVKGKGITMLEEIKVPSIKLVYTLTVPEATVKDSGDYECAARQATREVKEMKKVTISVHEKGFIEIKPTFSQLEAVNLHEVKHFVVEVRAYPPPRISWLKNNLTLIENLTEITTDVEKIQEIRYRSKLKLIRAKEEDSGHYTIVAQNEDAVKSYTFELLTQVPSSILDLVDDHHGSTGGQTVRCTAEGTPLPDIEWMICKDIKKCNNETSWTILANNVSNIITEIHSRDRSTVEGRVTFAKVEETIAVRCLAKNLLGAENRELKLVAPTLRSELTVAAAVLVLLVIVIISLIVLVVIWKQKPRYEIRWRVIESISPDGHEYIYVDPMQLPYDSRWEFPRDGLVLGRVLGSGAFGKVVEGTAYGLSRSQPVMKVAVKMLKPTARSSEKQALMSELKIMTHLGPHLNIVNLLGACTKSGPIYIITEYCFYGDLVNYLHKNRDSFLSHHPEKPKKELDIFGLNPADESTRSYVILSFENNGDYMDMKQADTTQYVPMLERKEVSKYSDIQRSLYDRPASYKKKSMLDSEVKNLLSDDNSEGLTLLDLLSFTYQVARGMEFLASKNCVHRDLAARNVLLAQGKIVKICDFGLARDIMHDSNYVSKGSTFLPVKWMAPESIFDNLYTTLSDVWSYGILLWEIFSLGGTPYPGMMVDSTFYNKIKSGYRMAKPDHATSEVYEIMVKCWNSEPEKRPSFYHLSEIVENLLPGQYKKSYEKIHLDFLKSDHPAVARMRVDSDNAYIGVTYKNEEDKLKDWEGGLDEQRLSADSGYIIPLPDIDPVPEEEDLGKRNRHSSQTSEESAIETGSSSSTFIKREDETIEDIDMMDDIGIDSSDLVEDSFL

| SMILES | IC50 (human PDGFR-β(wt)) [nM] | GI50 (Ba/F3-TEL-PDGFRα(WT)) [nM] | IC50 (human PDGFR-α(wt)) [nM] | GI50 (Ba/F3-c-KIT(D816V)) [nM] | GI50 (Ba/F3-TEL-PDGFβ(WT)) [nM] | GI50 (c-KIT V560G/D816V) [nM] |
| --- | --- | --- | --- | --- | --- | --- |
| COc1cc2c(-c3ccc(NC(=O)C(C)(N)c4ccc(F)cc4)cc3)ncnc2cc1OCC(C)C (centres unmarked) [Example 10, 2-amino-2-(4-fluorophenyl)-N-(4-(7-isobutoxy-6-methoxyquinazolin-4-yl)phenyl)propanamide] | 100 to 500 | ≤ 200 | ≤ 50 | ≤ 200 | 200 to 500 | > 500 |
| COCCOc1cc2ncnc(-c3ccc(NC(=O)C(C)(N)c4ccc(F)cc4)cc3)c2cc1OCCOC (centres unmarked) [Example 58, 2-amino-N-(4-(6,7-bis(2-methoxyethoxy)quinazolin-4-yl)phenyl)-2-(4-fluorophenyl)propanamide] | ≤ 50 | ≤ 200 | ≤ 50 | ≤ 200 | ≤ 200 | > 500 |
| CCN1CCC(COc2cc3ncnc(-c4ccc(NC(=O)CCc5ccccc5)cc4)c3cc2OC)CC1 [Example 72, N-(4-(7-((1-ethylpiperidin-4-yl)methoxy)-6-methoxyquinazolin-4-yl)phenyl)-3-phenylpropanamide] | ≤ 50 | ≤ 200 | ≤ 50 | ≤ 200 | ≤ 200 | ≤ 200 |
| COc1cc2c(-c3ccc(NC(=O)Cc4ccsc4)cc3)ncnc2cc1OCCCN1CCN(C)CC1 [Example 84, N-(4-(6-methoxy-7-(3-(4-methylpiperazin-1-yl)propoxy)quinazolin-4-yl)phenyl)-2-(thiophene-3-yl)acetamide] | ≤ 50 | ≤ 200 | ≤ 50 | ≤ 200 | ≤ 200 | ≤ 200 |
| COc1cc2c(-c3ccc(NC(=O)Cc4ccc5c(c4)CCO5)cc3)ncnc2cc1OCCCN1CCN(C)CC1 [Example 85, 2-(2,3-dihydrobenzofuran-5-yl)-N-(4-(6-methoxy-7-(3-(4-methylpiperazin-1-yl)propoxy)quinazolin-4-yl)phenyl)acetamide] | ≤ 50 | ≤ 200 | ≤ 50 | ≤ 200 | ≤ 200 | 200 to 500 |
| COCCN1CCC(COc2cc3ncnc(-c4ccc(NC(=O)C(C)(C)c5ccc(F)cc5)cc4)c3cc2OC)CC1 [Example 89, 2-(4-fluorophenyl)-N-(4-(6-methoxy-7-((1-(2-methoxyethyl)piperidin-4-yl)methoxy)quinazolin-4-yl)phenyl)-2-methylpropanamide] | ≤ 50 | ≤ 200 | ≤ 50 |  | ≤ 200 | ≤ 200 |
| CCN1CCC(COc2cc3ncnc(-c4ccc(NC(=O)C(C)(C)c5ccc(F)cc5)cc4)c3cc2OC)CC1 [Example 90, N-(4-(7-((1-ethylpiperidin-4-yl)methoxy)-6-methoxyquinazolin-4-yl)phenyl)-2-(4-fluorophenyl)-2-methylpropanamide] | ≤ 50 | ≤ 200 | ≤ 50 |  | ≤ 200 | ≤ 200 |
| COCCN1CCC(COc2cc3ncnc(-c4ccc(NC(=O)Cc5ccc(Cl)nc5)cc4)c3cc2OC)CC1 [Example 113, 2-(6-chloropyridin-3-yl)-N-(4-(6-methoxy-7-((1-(2-methoxyethyl)piperidin-4-yl)methoxy)quinazolin-4-yl)phenyl)acetamide] | ≤ 50 |  |  |  | ≤ 200 | ≤ 200 |

Next, values leading:

| IC50 (human PDGFR-β(wt)) [nM] | GI50 (Ba/F3-TEL-PDGFRα(WT)) [nM] | IC50 (human PDGFR-α(wt)) [nM] | GI50 (Ba/F3-c-KIT(D816V)) [nM] | GI50 (Ba/F3-TEL-PDGFβ(WT)) [nM] | GI50 (c-KIT V560G/D816V) [nM] | SMILES |
| --- | --- | --- | --- | --- | --- | --- |
| ≤ 50 |  |  |  | ≤ 200 | ≤ 200 | COc1ccc(CC(=O)Nc2ccc(-c3ncnc4cc(OCC5CCN(C(C)C)CC5)c(OC)cc34)cc2)cn1 [Example 116, N-(4-(7-((1-isopropylpiperidin-4-yl)methoxy)-6-methoxyquinazolin-4-yl)phenyl)-2-(6-methoxypyridin-3-yl)acetamide] |
| ≤ 50 |  |  |  | ≤ 200 | ≤ 200 | COc1cc2c(-c3ccc(NC(=O)Cc4ccc(C(F)(F)F)nc4)cc3)ncnc2cc1OCC1CCN(C(C)C)CC1 [Example 121, N-(4-(7-((1-isopropylpiperidin-4-yl)methoxy)-6-methoxyquinazolin-4-yl)phenyl)-2-(6-(trifluoromethyl)pyridin-3-yl)acetamide] |
| 100 to 500 | ≤ 200 | ≤ 50 |  | ≤ 200 |  | COc1cc2ncnc(-c3ccc(NC(=O)Cc4ccc(F)cc4)cc3)c2cc1O [Example 124, 2-(4-fluorophenyl)-N-(4-(6-hydroxy-7-methoxyquinazolin-4-yl)phenyl)acetamide] |
| ≤ 50 |  |  | ≤ 200 | ≤ 200 | ≤ 200 | COc1cc2c(-c3ccc(NC(=O)Cc4ccc(C(F)(F)F)cc4)cc3)ncnc2cc1OCCCN1CCN(C2CC2)CC1 [Example 142, N-(4-(7-(3-(4-cyclopropylpiperazin-1-yl)propoxy)-6-methoxyquinazolin-4-yl)phenyl)-2-(4-(trifluoromethyl)phenyl)acetamide] |
| ≤ 50 | ≤ 200 | ≤ 50 | ≤ 200 | ≤ 200 |  | CCN1CCC(COc2cc3c(-c4ccc(NC(=O)Cc5ccc(C(F)(F)F)cc5)cc4)ncnc3cc2OC)CC1 [Example 147, N-(4-(6-((1-ethylpiperidin-4-yl)methoxy)-7-methoxyquinazolin-4-yl)phenyl)-2-(4-(trifluoromethyl)phenyl)acetamide] |
| ≤ 50 | ≤ 200 | ≤ 50 | > 500 | ≤ 200 |  | CCN1CC2(C1)CN(CCCOc1cc3c(-c4ccc(NC(=O)Cc5ccc(C(F)(F)F)cc5)cc4)ncnc3cc1OC)C2 [Example 149] |
| ≤ 50 | ≤ 200 | ≤ 50 | ≤ 200 | ≤ 200 |  | COc1cc2ncnc(-c3ccc(NC(=O)Cc4ccc(C(F)(F)F)cc4)cc3)c2cc1OCCCN1CC2(CCOCC2)C1 [Example 151, N-(4-(6-(3-(7-oxa-2-azaspiro[3.5]nonane-2-yl)propoxy)-7-methoxyquinazolin-4-yl)phenyl)-2-(4-(trifluoromethyl)phenyl)acetamide] |
| ≤ 50 |  |  | ≤ 200 | ≤ 200 | 200 to 500 | COc1cc2ncnc(-c3ccc(NC(=O)Cc4ccc(C(F)(F)F)cc4)cc3)c2cc1OCCCN1C[C@@H]2C[C@H]1CN2C [Example 158, N-(4-(7-methoxy-6-(3-((1S,4S)-5-methyl-2,5-diazabicyclo[2.2.1]heptane-2-yl)propoxy)quinazolin-4-yl)phenyl)-2-(4-(trifluoromethyl)phenyl)acetamide] |
| ≤ 50 |  |  | ≤ 200 | ≤ 200 | ≤ 200 | COc1cc2ncnc(-c3ccc(NC(=O)Cc4ccc(C(F)(F)F)cc4)cc3)c2cc1OCCCN1CCN2CCCC2C1 (centres unmarked) [Example 161, N-(4-(6-(3-(hexahydropyrrolo[1,2-a]pyrazin-2(1H)-yl)propoxy)-7-methoxyquinazolin-4-yl)phenyl)-2-(4-(trifluoromethyl)phenyl)acetamide] |
